Test results taken from the NIST ThermoML archive (doi:10.1016/j.jct.2005.08.005).

Key:
[1] = refractive index (other wavelength) (dimensionless); conditions: 101.3 kPa, Liquid, Wavelength=632.8 nm, Method described in references 3 and 4 of the article
[2] = refractive index (other wavelength) (dimensionless); xn = mol fraction of the nth substance listed; conditions: 101.3 kPa, Liquid, Wavelength=632.8 nm, Method described in references 3 and 4 of the article, x2 = 0

N#Cc1ccccc1 [benzonitrile]
[1]
Conditions	refractive index
294.62 K	1.5246
296.97 K	1.5235
299.08 K	1.5224
301.39 K	1.5213
303.42 K	1.5203
305.92 K	1.5191

CCCCCCCCCCCCCCCC [hexadecane]
[1]
Conditions	refractive index
294.85 K	1.4324
295.86 K	1.432
296.96 K	1.4315
297.9 K	1.4312
299.71 K	1.4304
301.21 K	1.4297
302.84 K	1.4291
304.26 K	1.4285

CCCCCCCCCCCCCCCC [hexadecane] + N#Cc1ccccc1
[2]
Conditions	refractive index
294.85 K	1.4324
295.86 K	1.432
296.96 K	1.4315
297.9 K	1.4312
299.71 K	1.4304
301.21 K	1.4297
302.84 K	1.4291
304.26 K	1.4285
